The source of these data is patent US11446269B2, “Methods of reducing or preventing oxidation of small dense LDL or membrane polyunsaturated fatty acids” (Amarin Pharmaceuticals Ireland Limited, priority 2014, dated 2022).

For this assay, the system named is human sdLDL. The experiment in a line: Copper-induced sdLDL oxidation, TBARS after 2 hr (Example 6). Type of assay: biochemical. The settings on record: 10 μM CuSO4, vs vehicle. The protocol:
Venous blood was collected from healthy volunteers into vacutainer tubes containing sodium EDTA. Plasma was separated by centrifugation at 3000 g for 25 min at 4° C. and adjusted to a density of 1.020 g/mL with KBr. Triglyceride-rich lipoproteins (TGRL) and LDL fractions were then isolated by sequential centrifugation at 70,000 rpm at 4° C. in a Beckman LE-80 ultracentrifuge using a Beckman 50.4Ti rotor (Beckman Coulter, Inc., Fullerton, Calif.). The TGRL fraction (with a relative density of <1.020) was aspirated from the top of the centrifugate and discarded, leaving an LDL-enriched infranate (with a relative density of 1.020 to 1.063). The plasma LDL fraction was further fractionated into LDL1, LDL2, LDL3, and LDL4 (sdLDL) subfractions with relative densities of 1.020 to 1.035, 1.035 to 1.050, 1.050 to 1.063, and 1.063 to 1.075, respectively. The sdLDL subfraction was retained for additional experimentation. Plasma and lipoprotein fractions were maintained at 4° C. and protected from excessive exposure to light. Prior to oxidation experiments, EDTA was removed from the lipoprotein fraction using PD-10 desalting columns (GE Healthcare, Piscataway N.J.). After equilibration of the column with phosphate buffered saline (PBS), 2.5 mL of the lipoprotein fraction was loaded on the column and the flow-through discarded. The lipoprotein was then eluted with 3 mL of PBS. The LDL fractions were further diluted with PBS to obtain a 100 μg/mL apoB100 concentration.
LDL and sdLDL subfractions (0.6 mL each) were incubated with either 10 μL vehicle (ethanol) or 10 μL drug stock solution for 30 min to 1 hr at 37° C. Oxidation was initiated by the addition of 10 μM CuSO4. After 2 hr, 100 μL aliquots were removed from each subfraction and combined with 1.0 mL thiobarbituric acid (0.5%), 10 μL trichloroacetic acid (5%), 10 μL BHT (5 mg/mL in methanol), and 10 μL EDTA (5 mM). […]. Sample TBARS concentrations were determined spectrophotometrically by measuring sample absorbances against a standard curve derived from the hydrolysis of 1,1,3,3-tetramethoxypropane.

On to `CC/C=C\C/C=C\C/C=C\C/C=C\C/C=C\CCCC(=O)O` [EPA, cis-5,8,11,14,17-eicosapentaenoic acid], for which the “reduction of TBARS levels” value runs as follows: (1.0 μM) 13%; (10.0 μM) 57%.
